Laboratory results: article PMC6694038, “Pharmacogenomic–pharmacokinetic study of selective estrogen-receptor modulators with intra-patient dose escalation in breast cancer” (Breast Cancer (Tokyo, Japan), 2019)
“Also recorded” adds a separate entry of the source. Read-outs that look alike come from different tables or passages of the source.

How the values were obtained:
[1] = Description: Written informed consent was obtained from all the participants included in the study. The patient enrolment period for the screening study started on February 1, 2009 and ended on July 31, 2012.
(§1) We obtained data on compliance and the grade of hot flush as defined by the Common Terminology Criteria for Adverse Events v3.0.
The p value was not calculated if there were no events.

[2] = Plasma concentrations of TAM, TOR and their metabolites by LC–MS/MS (screening study); details: TOR 120 mg for up to 6 months
[3] = weighting of plasma concentration; cited from earlier work
[4] = TOR versus TAM, seven randomized-controlled trials; cited from earlier work
[5] = Total activity: sum of plasma concentrations of each active metabolite adjusted by in vitro activity; assay type: in vivo, breast cancer patients
Protocol: Blood samples for PK analysis were obtained from patients who had good compliance with taking medications 2–4 h after taking anti-estrogens. […] The interday variability and intraday variability for all compounds are within 15%.

[6] = Hot flush grade (CTCAE v3.0) in the screening study; assay type: in vivo, breast cancer patients; details: screening study
Description: as §1

For `CN(C)CCOc1ccc(/C(=C(/CCCl)c2ccccc2)c2ccccc2)cc1` [TOR, toremifene], the “Low WBC ≧ G2, patients” value ([1]; TOR 120 mg (1)) was 1, the “T. Bil elevation All grade, % of patients” value ([1]; TOR 120 mg (1)) was 0 (0) % and the “T. Bil elevation All grade, patients” value ([1]; TOR 120 mg (1)) was 0 (0). For the same compound, the “T. Bil elevation ≧ G2, % of patients” value ([1]; TOR 120 mg (1)) was 0 (0) %, the “T. Bil elevation ≧ G2, patients” value ([1]; TOR 120 mg (1)) was 0 (0) and the “TG elevation All grade, % of patients” value ([1]; TOR 120 mg (1)) was 0 (0) %. For the same compound, the “TG elevation All grade, patients” value ([1]; TOR 120 mg (1)) was 0 (0), the “TG elevation ≧ G2, % of patients” value ([1]; TOR 120 mg (1)) was 0 (0) % and the “TG elevation ≧ G2, patients” value ([1]; TOR 120 mg (1)) was 0 (0). The “Weight, max” value ([1]; TOR 120 mg (1)) was 73.5 kg, the “Weight, mean” value ([1]; TOR 120 mg (1)) was 53.4 kg and the “Weight, median” value ([1]; TOR 120 mg (1)) was 51.0 kg. The “Weight, min” value ([1]; TOR 120 mg (1)) was 45.0 kg, the “Cre elevation All grade, % of patients” value ([1]; TOR 120 mg (2)) was 16.7% and the “Cre elevation All grade, patients” value ([1]; TOR 120 mg (2)) was 2. The “Cre elevation ≧ G2, % of patients” value ([1]; TOR 120 mg (2)) was 0 (0) %, the “Cre elevation ≧ G2, patients” value ([1]; TOR 120 mg (2)) was 0 (0) and the “GOT elevation All grade, % of patients” value ([1]; TOR 120 mg (2)) was 8.3%. For the same compound, the “GOT elevation All grade, patients” value ([1]; TOR 120 mg (2)) was 1, the “GOT elevation ≧ G2, % of patients” value ([1]; TOR 120 mg (2)) was 0 (0) % and the “GOT elevation ≧ G2, patients” value ([1]; TOR 120 mg (2)) was 0 (0). The “GPT elevation All grade, % of patients” value ([1]; TOR 120 mg (2)) was 8.3%, the “GPT elevation All grade, patients” value ([1]; TOR 120 mg (2)) was 1 and the “GPT elevation ≧ G2, % of patients” value ([1]; TOR 120 mg (2)) was 0 (0) %. For the same compound, the “GPT elevation ≧ G2, patients” value ([1]; TOR 120 mg (2)) was 0 (0), the “Hot flush G0, % of patients” value ([1]; TOR 120 mg (2)) was 75.0% and the “Hot flush G0, patients” value ([1]; TOR 120 mg (2)) was 9. The “Hot flush G1, % of patients” value ([1]; TOR 120 mg (2)) was 8.3%, the “Hot flush G1, patients” value ([1]; TOR 120 mg (2)) was 1 and the “Hot flush G2, % of patients” value ([1]; TOR 120 mg (2)) was 16.7%. For the same compound, the “Hot flush G2, patients” value ([1]; TOR 120 mg (2)) was 2, the “Hyperglycemia All grade, % of patients” value ([1]; TOR 120 mg (2)) was 7.1% and the “Hyperglycemia All grade, patients” value ([1]; TOR 120 mg (2)) was 1. For the same compound, the “Hyperglycemia ≧ G2, % of patients” value ([1]; TOR 120 mg (2)) was 7.1%, the “Hyperglycemia ≧ G2, patients” value ([1]; TOR 120 mg (2)) was 1 and the “LDH elevation All grade, % of patients” value ([1]; TOR 120 mg (2)) was 0 (0) %. For the same compound, the “LDH elevation All grade, patients” value ([1]; TOR 120 mg (2)) was 0 (0), the “LDH elevation ≧ G2, % of patients” value ([1]; TOR 120 mg (2)) was 0 (0) % and the “LDH elevation ≧ G2, patients” value ([1]; TOR 120 mg (2)) was 0 (0). For the same compound, the “LDL elevation All grade, % of patients” value ([1]; TOR 120 mg (2)) was 10.0%, the “LDL elevation All grade, patients” value ([1]; TOR 120 mg (2)) was 1 and the “LDL elevation ≧ G2, % of patients” value ([1]; TOR 120 mg (2)) was 0 (0) %. The “LDL elevation ≧ G2, patients” value ([1]; TOR 120 mg (2)) was 0 (0), the “Low PLT All grade, % of patients” value ([1]; TOR 120 mg (2)) was 0 (0) % and the “Low PLT All grade, patients” value ([1]; TOR 120 mg (2)) was 0 (0). The “Low PLT ≧ G2, % of patients” value ([1]; TOR 120 mg (2)) was 0 (0) %, the “Low PLT ≧ G2, patients” value ([1]; TOR 120 mg (2)) was 0 (0) and the “Low WBC All grade, % of patients” value ([1]; TOR 120 mg (2)) was 8.3%. The “Low WBC All grade, patients” value ([1]; TOR 120 mg (2)) was 1, the “Low WBC ≧ G2, % of patients” value ([1]; TOR 120 mg (2)) was 8.3% and the “Low WBC ≧ G2, patients” value ([1]; TOR 120 mg (2)) was 1. For the same compound, the “T. Bil elevation All grade, % of patients” value ([1]; TOR 120 mg (2)) was 0 (0) %, the “T. Bil elevation All grade, patients” value ([1]; TOR 120 mg (2)) was 0 (0) and the “T. Bil elevation ≧ G2, % of patients” value ([1]; TOR 120 mg (2)) was 0 (0) %. The “T. Bil elevation ≧ G2, patients” value ([1]; TOR 120 mg (2)) was 0 (0), the “TG elevation All grade, % of patients” value ([1]; TOR 120 mg (2)) was 0 (0) % and the “TG elevation All grade, patients” value ([1]; TOR 120 mg (2)) was 0 (0). For the same compound, the “TG elevation ≧ G2, % of patients” value ([1]; TOR 120 mg (2)) was 0 (0) %, the “TG elevation ≧ G2, patients” value ([1]; TOR 120 mg (2)) was 0 (0) and the “Weight, max” value ([1]; TOR 120 mg (2)) was 73.0 kg. For the same compound, the “Weight, mean” value ([1]; TOR 120 mg (2)) was 53.6 kg, the “Weight, median” value ([1]; TOR 120 mg (2)) was 51.1 kg and the “Weight, min” value ([1]; TOR 120 mg (2)) was 46.0 kg. The “Body weight during dose escalation” value ([1]; TOR 40 to 120 mg) was “remained stable”, the “Hot flushes and GOT/GPT elevation with an increase in the dose” value ([1]; TOR 40 to 120 mg) was “only a few patients developed hot flushes and GOT/GPT elevation” and the “Concentration on continuing the same dose” value [2] was “remained constant”. The “In vitro activity factor in the total activity of TOR (TOR = 1.0)” value [3] was 1.0, the “Efficacy in patients with advanced breast cancer” value [4] was “equally effective” and the “Total activity on continuing the same dose” value ([5]; TOR 120 mg for up to 6 months, trend for decrease after 24 weeks) was “remained constant”. For the same compound, the “Change of total activity after increasing the dose” value ([5]; TOR from 40 to 120 mg, p < 0.01) was “increased significantly; also recorded: increased by at least twofold”, the “Hot flush grade 0, % of patients” value ([6]; TOR 40 mg) was 57.4% and the “Hot flush grade 0, patients” value ([6]; TOR 40 mg) was 35. For the same compound, the “Hot flush grade 1, % of patients” value ([6]; TOR 40 mg) was 32.8%, the “Hot flush grade 1, patients” value ([6]; TOR 40 mg) was 20 and the “Hot flush grade 2, % of patients” value ([6]; TOR 40 mg) was 9.8%. For the same compound, the “Hot flush grade 2, patients” value ([6]; TOR 40 mg) was 6, the “Hot flush grade 3, % of patients” value ([6]; TOR 40 mg) was 0.0% and the “Hot flush grade 3, patients” value ([6]; TOR 40 mg) was 0. The “Hot flush grade 0, % of patients” value ([6]; TOR 120 mg) was 88.9%, the “Hot flush grade 0, patients” value ([6]; TOR 120 mg) was 24 and the “Hot flush grade 1, % of patients” value ([6]; TOR 120 mg) was 11.1%. For the same compound, the “Hot flush grade 1, patients” value ([6]; TOR 120 mg) was 3, the “Hot flush grade 2, % of patients” value ([6]; TOR 120 mg) was 0.0% and the “Hot flush grade 2, patients” value ([6]; TOR 120 mg) was 0. The “Hot flush grade 3, % of patients” value ([6]; TOR 120 mg) was 0.0%, the “Hot flush grade 3, patients” value ([6]; TOR 120 mg) was 0 and the “Grade and frequency of hot flushes compared with TAM 20 mg or TOR 40 mg” value ([6]; patients taking TOR 120 mg) was “lower grade and frequency of hot flushes”.
